Key:
[1] = test system: Human peripheral blood mononuclear cells; assay: iPS cell induction from mononuclear cells in PTA-containing medium (Example 1); format: cell-based; conditions: IL-2 added daily
Description: A PTA-containing medium according to Example 1 was prepared using RPMI 1640 medium (Gibco) containing […] of tetrakis-pivaloyloxymethyl-2-(thiazol-2-ylamino) ethylidene-1, 1-bisphosphonate (PTA, Techno Suzuta), 10% fetal bovine serum (Life Technologies), 1.0×10^−5 mol/L 2-mercaptoethanol (Nacalai Tesque), 100 U/mL penicillin, and 100 μg/mL streptomycin (Life Technologies).
Human peripheral blood mononuclear cells were added to the PTA-containing medium according to Example 1, and a medium containing approximately 1×10^6 mononuclear cells was placed into a 24-well plate (Day 1). […] On Day 3, the medium containing cells was collected from the plate, centrifuged, and the supernatant was removed. Then, 2 mL of fresh PTA-containing medium according to Example 1 was added to the cells, and 1 mL of the medium was placed into two wells of a 24-well plate.
On Day 6, the medium containing cells was collected from the plate, centrifuged, and the supernatant was removed. Then, the PTA-containing medium according to Example 1 was added to the cells, and a medium containing 2×10^4 mononuclear cells was placed into a 96-well plate. KLF4, OCT3/4, SOX2, and c-MYC were introduced into the cells using MSRV (Tokiwa Bio). […]
Additionally, genomic DNA was extracted from the iPS cells, and the presence of the recombined Vγ9 gene was analyzed by PCR and electrophoresis. […]

[2] = test system: γδ T cell receptor (TCR); assay: Stimulation of iPS-derived T cell progenitors through the γδ T cell receptor, flow cytometry (Example 5); format: cell-based, human; conditions: day 35; HMBPP 0.01 μg/mL to 1 μg/mL or zoledronic acid 5 μmol/L; no marker expression without stimulants; FIG. 11
Description: αMEM medium supplemented with a final concentration of 20% FBS and 1% penicillin/streptomycin was prepared as an OP9 cell culture medium.
OP9 cell culture medium supplemented with a final concentration of 100 mmol/L vitamin C, 10 ng/ML IL-7, 10 μg/mL FLT3 ligand, and 10 μg/mL stem cell factor (SCF) was prepared as a differentiation induction medium.
A dish on which OP9 cells were cultured was prepared as the feeder cells. The OP9 cells were cultured in the OP9 medium. Multiple cell clusters of iPS cells were seeded onto the feeder cells, and stem cell medium containing 10 μmol/L Y27632 was added. The cells were cultured for two days. On the second day, the medium was replaced with the OP9 medium supplemented with vitamin C, and the cells were cultured for an additional 12 days. On days 5, 9, and 13, half of the medium was removed from the dish and replaced with fresh OP9 medium supplemented with vitamin C.
During the 14-day culture, the differentiation of iPS cells into hematopoietic progenitor cells was observed. The cells were confirmed to be positive for CD34 and CD43, which are markers of hematopoietic cells. […]
It was confirmed that CD3 and γδ TCR (Vγ9) were expressed on the surface of the cells. […] In the negative control, where no stimulants were added, no marker expression was detected.

In the case of `CC(C)(C)C(=O)OCOP(=O)(OCOC(=O)C(C)(C)C)C(CNc1nccs1)P(=O)(OCOC(=O)C(C)(C)C)OCOC(=O)C(C)(C)C` [PTA, tetrakis-pivaloyloxymethyl-2-(thiazol-2-ylamino) ethylidene-1,1-bisphosphonate], the “presence of the recombined Vγ9 gene in the iPS cells by PCR and electrophoresis” value ([1]; FIG. 3) is reported as “confirmed to possess a recombined Vγ9 gene with a JP gene” and the “colonies of iPS cells on Day 14” value ([1]; KLF4, OCT3/4, SOX2, c-MYC introduced using MSRV, MOI 5) is reported as “multiple colonies”.
In the case of `C/C(=C\COP(=O)(O)OP(=O)(O)O)CO` [HMBPP, (E)-4-hydroxy-3-methyl-but-2-enyl pyrophosphate], the “CD3 and γδ TCR (Vγ9) expression on the surface of the cells” value [2] is reported as “expressed”.

Source: patent publication US20250354115A1, “METHOD FOR PRODUCING STEM CELLS AND METHOD FOR PRODUCING GAMMA DELTA T CELLS” (I Peace, Inc., priority 2022, published 2025)
